Twelve molecules from patent US20260116921A1, “PEPTIDE INHIBITORS OF INTERLEUKIN-23 RECEPTOR AND THEIR USE TO TREAT INFLAMMATORY DISEASES” (priority 2018, published 2026) can be followed below.

Bridge positions count the residues as written; N and C are the ends. Square brackets hold non-standard residues; d marks the D form. Peptide text beside a SMILES is read from it. Trp(7-Me) = Cc1cccc2c(C[C@H](N)C(=O)O)c[nH]c12; 2Nal = N[C@@H](Cc1ccc2ccccc2c1)C(=O)O; AEF = NCCOc1ccc(C[C@H](N)C(=O)O)cc1; Cit = NC(=O)NCCC[C@H](N)C(=O)O; αMeL = CC(C)C[C@](C)(N)C(=O)O; Pen = CC(C)(S)[C@H](N)C(=O)O; αMeK = C[C@](N)(CCCCN)C(=O)O; βAla = NCCC(=O)O A value given as a limit tells only on which side of the number the result lay.

One series concerns the target T1, IL-23R (Homo sapiens, UniProt Q5VWK5).
T1 sequence (Q5VWK5 24-629): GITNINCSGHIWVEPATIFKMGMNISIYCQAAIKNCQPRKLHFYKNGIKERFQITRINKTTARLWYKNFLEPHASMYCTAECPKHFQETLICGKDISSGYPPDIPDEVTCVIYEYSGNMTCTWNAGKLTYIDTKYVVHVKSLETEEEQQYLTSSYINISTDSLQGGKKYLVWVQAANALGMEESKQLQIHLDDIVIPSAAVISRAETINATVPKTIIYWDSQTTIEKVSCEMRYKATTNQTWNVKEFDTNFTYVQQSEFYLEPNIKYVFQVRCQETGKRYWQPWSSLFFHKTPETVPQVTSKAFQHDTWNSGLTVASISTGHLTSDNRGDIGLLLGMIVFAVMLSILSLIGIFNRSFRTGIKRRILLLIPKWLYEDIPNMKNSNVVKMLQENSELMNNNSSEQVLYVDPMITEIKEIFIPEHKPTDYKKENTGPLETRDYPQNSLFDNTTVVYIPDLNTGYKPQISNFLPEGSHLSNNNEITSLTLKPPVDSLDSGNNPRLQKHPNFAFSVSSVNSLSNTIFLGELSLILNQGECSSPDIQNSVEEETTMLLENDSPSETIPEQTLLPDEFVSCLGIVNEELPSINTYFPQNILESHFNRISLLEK
As to the kind of experiment: DB cells IL23R pSTAT3 cell assay (pStat3 HTRF). The format is cell-based. The conditions noted are these: Table E3; DB cells, IL-23 0.5 nM, 30 minutes at 37° C.; read-out: pStat3 HTRF (IC50). In outline: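 DB cells (5×10E5/well, RPMI-1640 + 10% FBS) stimulated with 0.5 nM final IL-23 plus serially diluted test peptides for 30 min at 37 °C, 5% CO2. Phospho-STAT3 (Tyr705) in lysates measured by HTRF using a two-plate protocol.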

A further series concerns NK cells. As to the kind of experiment: NK cell based assay (IL-23/IL-18-induced IFNγ, Quantikine ELISA). The note with it: human primary NK cells, IL-23 at EC50 to EC75 + IL-18 10 ng/mL, IFNγ after 20 to 24 hours. The protocol: killer (NK) cells, purified from human peripheral blood of healthy donors by negative selection (Miltenyi Biotech, Cat #130-092-657), were cultured in complete media (RPMI 1640 containing […], L-glutamine and penicillin-streptomycin) in the presence of IL-2 (RnD, Cat #202-IL-010/CF) at 25 ng/mL. After 7 days, cells were centrifuged, and resuspended in complete media at IE6 cells/mL. […] After 20 to 24 hours, IFNγ in the supernatant was quantified using Quantikine ELISA (RnD, Cat #DIF50).
A general note: In an ELISA, binding on a coated surface is turned into a signal by an enzyme label.

Series [1] is described as follows: in vitro. The note with it: human, 20% fecal homogenate (supernatant), anaerobic, pH 6.8.
The nature of series [2]: in vitro. The conditions noted are these: cynomolgus monkey, 20% fecal homogenate (supernatant), anaerobic, pH 6.8.
A short description of series [3]: in vitro. The note with it: both, SD, rat.
Protocol: Peptides of interest (20 μM) were incubated with pre-warmed rat plasma (SD rat, mixed gender pooled, EDTA, filtered through 0.22 μm, BioreclamationIVT) at 37° C. […] Quenched samples were stored at 4° C. until the end of the experiment and centrifuged at 4,000 rpm for 10 minutes. The supernatant were diluted 1:1 with deionized water and analyzed using LC-MS. Percentage remaining at each time point was calculated based on the peak area ratio (analyte over internal standard) relative to the initial level at time zero. Half-lives were calculated by fitting to a first-order exponential decay equation using GraphPad.

On to `CC(=O)NCCCC[C@H](NC(=O)[C@](C)(CC(C)C)NC(=O)[C@H](Cc1ccc2ccccc2c1)NC(=O)[C@H](Cc1ccc(OCCN)cc1)NC(=O)[C@H]1NC(=O)[C@H](CCC(N)=O)NC(=O)[C@H](Cc2c[nH]c3c(C)cccc23)NC(=O)[C@H]([C@@H](C)O)NC(=O)[C@H](CC(N)=O)NC(=O)[C@@H](NC(C)=O)C(C)(C)SSC1(C)C)C(=O)NCCC(=O)NCCC(N)=O` [compound 226], for which the IC50 – broadly, the concentration that inhibits the measured activity by half – at IL-23R is 10 to 100 nM; in the series with NK cells, below 10 nM. The results for the half-life at 20 μM in “in vitro [1]”, in “in vitro [2]” and in “in vitro [3]” (plasma (EDTA)) were above 24 h, above 24 h and 8 h, respectively.
For `CC[C@H](C)[C@H](NC(=O)[C@H](CCCCNC(C)=O)NC(=O)[C@](C)(CC(C)C)NC(=O)[C@H](Cc1ccc2ccccc2c1)NC(=O)[C@H](Cc1ccc(OCCN)cc1)NC(=O)[C@H]1NC(=O)[C@H](CCC(N)=O)NC(=O)[C@H](Cc2c[nH]c3c(C)cccc23)NC(=O)[C@H]([C@@H](C)O)NC(=O)[C@H](CC(N)=O)NC(=O)[C@@H](NC(C)=O)C(C)(C)SSC1(C)C)C(=O)NCCC(N)=O` [compound 216], the figures for the IC50 at IL-23R and in the series with NK cells were 10 to 100 nM and 101 to 500 nM, respectively. The half-life (as a rule, the time needed for the level to fall by half in the phase considered) at 20 μM in “in vitro [1]” is above 24 h; in “in vitro [2]”, above 24 h; in “in vitro [3]” (plasma (EDTA)) it was 13 h.
In the case of `CC(=O)NCCCC[C@@H]1NC(=O)[C@H](Cc2c[nH]c3c(C)cccc23)NC(=O)[C@H]([C@@H](C)O)NC(=O)[C@H](CC(N)=O)NC(=O)[C@@H](NC(C)=O)C(C)(C)SSC(C)(C)[C@@H](C(=O)N[C@@H](Cc2ccc(OCCN)cc2)C(=O)N[C@@H](Cc2ccc3ccccc3c2)C(=O)N[C@@](C)(CCCCN)C(=O)N[C@@H](CCCCNC(C)=O)C(=O)N[C@@H](Cc2c[nH]cn2)C(=O)NCCC(N)=O)NC1=O` [compound 272], the IC50 at IL-23R is 1 to 10 nM; with NK cells, below 10 nM. The half-life at 20 μM in the series “in vitro [1]”, in the series “in vitro [2]” and in “in vitro [3]” (plasma (EDTA)) was above 24 h each time.
For the molecule `CC(=O)NCCCC[C@H](NC(=O)[C@](C)(CCCCN)NC(=O)[C@H](Cc1ccc2ccccc2c1)NC(=O)[C@H](Cc1ccc(OCCN)cc1)NC(=O)[C@H]1NC(=O)[C@H](CCC(N)=O)NC(=O)[C@H](Cc2c[nH]c3c(C)cccc23)NC(=O)[C@H]([C@@H](C)O)NC(=O)[C@H](CCCNC(N)=O)NC(=O)[C@@H](NC(C)=O)C(C)(C)SSC1(C)C)C(=O)N[C@@H](CC(N)=O)C(=O)NCCC(N)=O` [compound 238] (Ac-[Pen][Cit]T[Trp(7-Me)]Q[Pen][AEF][2Nal][αMeK]K(Ac)N[βAla]-NH2; disulfide 1-6), the half-maximal inhibitory concentration (IC50) on IL-23R was 1 to 10 nM; with NK cells it was below 10 nM. In addition, the half-life at 20 μM was above 24 h in the series “in vitro [1]”, 7 h in the series “in vitro [2]” and above 24 h in “in vitro [3]” (plasma (EDTA)).
As to `CC(=O)N[C@@H]1C(=O)N[C@@H](CC(N)=O)C(=O)N[C@@H]([C@@H](C)O)C(=O)N[C@@H](Cc2c[nH]c3c(C)cccc23)C(=O)N[C@@H](CCC(N)=O)C(=O)N[C@H](C(=O)N[C@@H](Cc2ccc(OCCN)cc2)C(=O)N[C@@H](Cc2ccc3ccccc3c2)C(=O)N[C@@](C)(CCCCN)C(=O)NC(C)(C)C(=O)N[C@@H](CC(N)=O)C(=O)NCCC(N)=O)C(C)(C)SSC1(C)C` [compound 236], the IC50 is 1 to 10 nM on IL-23R and below 10 nM in the series with NK cells. The values for the half-life at 20 μM in “in vitro [1]”, in “in vitro [2]” and in the series “in vitro [3]” (plasma (EDTA)) were above 24 h, above 24 h and above 19.8 h, respectively.
Take `CC(=O)NCCCC[C@@H]1NC(=O)[C@H](Cc2c[nH]c3c(C)cccc23)NC(=O)[C@H]([C@@H](C)O)NC(=O)[C@H](CC(N)=O)NC(=O)[C@@H](NC(C)=O)C(C)(C)SSC(C)(C)[C@@H](C(=O)N[C@@H](Cc2ccc(OCCN)cc2)C(=O)N[C@@H](Cc2ccc3ccccc3c2)C(=O)N[C@@](C)(CCCCN)C(=O)N[C@@H](CCCCNC(C)=O)C(=O)N[C@@H](CC(N)=O)C(=O)NCCC(N)=O)NC1=O` [compound 242]: the IC50 is below 1 nM on IL-23R and below 10 nM with NK cells. For the same molecule, the half-life at 20 μM in the series “in vitro [1]” is above 24 h; in “in vitro [2]”, 8 h; in “in vitro [3]” (plasma (EDTA)), above 24 h.
In the case of `CC(=O)NCCCC[C@@H]1NC(=O)[C@H](Cc2c[nH]c3c(C)cccc23)NC(=O)[C@H]([C@@H](C)O)NC(=O)[C@H](CC(N)=O)NC(=O)[C@@H](NC(C)=O)C(C)(C)SSC(C)(C)[C@@H](C(=O)N[C@@H](Cc2ccc(OCCN)cc2)C(=O)N[C@@H](Cc2ccc3ccccc3c2)C(=O)N[C@@](C)(CCCCN)C(=O)N[C@@H](CCCCNC(C)=O)C(=O)N[C@@H](CC(N)=O)C(=O)N[C@H](CCCCN)C(N)=O)NC1=O` [SEQ ID No. 252, Ac-[Pen]-NT-[W(7-Me)]-[Lys(Ac)]-[Pen]-Phe[4-(2-aminoethoxy)]-[2-Nal]-[a-MeLys]-[Lys(Ac)]-N-[(D)Lys]-NH2], the figures for the IC50 at IL-23R and in the series with NK cells were below 1 nM and below 10 nM, respectively. Also, the half-life at 20 μM in the series “in vitro [1]” is above 24 h; in “in vitro [2]” it was above 24 h; in “in vitro [3]” (plasma (EDTA, pooled)) it was above 24 h.
Regarding `CC(=O)NCCCC[C@H](NC(=O)[C@](C)(CC(C)C)NC(=O)[C@H](Cc1ccc2ccccc2c1)NC(=O)[C@H](Cc1ccc(OCCN)cc1)NC(=O)[C@H]1NC(=O)[C@H](CCC(N)=O)NC(=O)[C@H](Cc2c[nH]c3c(C)cccc23)NC(=O)[C@H]([C@@H](C)O)NC(=O)[C@H](CC(N)=O)NC(=O)[C@@H](NC(C)=O)C(C)(C)SSC1(C)C)C(=O)N(C)CC(=O)NCCC(N)=O` [compound 224], the results for the IC50 at IL-23R and in the series on NK cells were above 100 nM and 101 to 500 nM, respectively. In addition, the half-life at 20 μM in the series “in vitro [1]” and in the series “in vitro [2]” was above 24 h in each case.
Regarding `CC(=O)NCCCC[C@H](NC(=O)[C@](C)(CC(C)C)NC(=O)[C@H](Cc1ccc2ccccc2c1)NC(=O)[C@H](Cc1ccc(OCCN)cc1)NC(=O)[C@H]1NC(=O)[C@H](CCC(N)=O)NC(=O)[C@H](Cc2c[nH]c3c(C)cccc23)NC(=O)[C@H]([C@@H](C)O)NC(=O)[C@H](CC(N)=O)NC(=O)[C@@H](NC(C)=O)C(C)(C)SSC1(C)C)C(=O)N[C@@H](CCCNC(N)=O)C(=O)NCCC(N)=O` [compound 206], the values for the IC50 at IL-23R and with NK cells were 10 to 100 nM and 11 to 100 nM, respectively. The figures for the half-life at 20 μM in the series “in vitro [1]” and in the series “in vitro [2]” were 20 h and above 24 h, respectively.
As for `CC(=O)NCCCC[C@H](NC(=O)[C@](C)(CCCCN)NC(=O)[C@H](Cc1ccc2ccccc2c1)NC(=O)[C@H](Cc1ccc(OCCN)cc1)NC(=O)[C@H]1NC(=O)[C@H](CCC(N)=O)NC(=O)[C@H](Cc2c[nH]c3c(C)cccc23)NC(=O)[C@H]([C@@H](C)O)NC(=O)[C@H](CC(N)=O)NC(=O)[C@@H](NC(C)=O)C(C)(C)SSC1(C)C)C(=O)N[C@@H](CC(N)=O)C(=O)NCCC(N)=O` [compound 202], the IC50 on IL-23R is 1 to 10 nM; in the series on NK cells, below 10 nM. In the series “in vitro [2]”, the half-life at 20 μM was 12 h.
Take `CC(=O)NCCCC[C@H](NC(=O)[C@](C)(CC(C)C)NC(=O)[C@H](Cc1ccc2ccccc2c1)NC(=O)[C@H](Cc1ccc(OCCN)cc1)NC(=O)[C@H]1NC(=O)[C@H](CCCNC(N)=O)NC(=O)[C@H](Cc2c[nH]c3c(C)cccc23)NC(=O)[C@H]([C@@H](C)O)NC(=O)[C@H](CC(N)=O)NC(=O)[C@@H](NC(C)=O)C(C)(C)SSC1(C)C)C(=O)N[C@@H](CC(N)=O)C(=O)NCCC(N)=O` [compound 227] (Ac-[Pen]NT[Trp(7-Me)][Cit][Pen][AEF][2Nal][αMeL]K(Ac)N[βAla]-NH2; disulfide 1-6): the IC50 is below 1 nM at IL-23R and below 10 nM in the series on NK cells.
Take `CC(=O)NCCCC[C@H](NC(=O)[C@](C)(CC(C)C)NC(=O)[C@H](Cc1ccc2ccccc2c1)NC(=O)[C@H](Cc1ccc(OCCN)cc1)NC(=O)[C@H]1NC(=O)[C@H](CCC(N)=O)NC(=O)[C@H](Cc2c[nH]c3c(C)cccc23)NC(=O)[C@H]([C@@H](C)O)NC(=O)[C@H](CC(N)=O)NC(=O)[C@@H](NC(C)=O)C(C)(C)SSC1(C)C)C(=O)N[C@@](C)(CC(C)C)C(=O)NCCC(N)=O` [compound 225]: the IC50 at IL-23R lay within 10 to 100 nM; with NK cells, 101 to 500 nM. In addition, the half-life at 20 μM in “in vitro [1]” and in “in vitro [2]” was above 24 h each time.
